ChEMBL document CHEMBL1201862, “PubChem BioAssay data set” (2004)
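Grown in 96-well plates, cells were treated for 48 hours with each compound at five concentrations. Insufficient inhibition: endpoint recorded as highest concentration tested. Here, GI50 denotes the concentration required for 50% inhibition of growth.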 Activity calls are given as the source filed them. No stated cut-off is given here; in the data, active = GI50 up to about 1.1 µM and inactive = higher.

Columns and labels:
Assay in all cases: NCI tumour cell line growth inhibition, 48 h
IGROV-1 = system: IGROV-1
NCI-H460 = system: NCI-H460
OVCAR-5 = system: OVCAR-5
U-251 = system: U-251
SNB-75 = system: SNB-75
SNB-19 = system: SNB-19
K562 = system: K562
LOX IMVI = system: LOX IMVI
SK-MEL-28 = system: SK-MEL-28
MOLT-4 = system: MOLT-4
A549 = system: A549
OVCAR-3 = system: OVCAR-3
KM12 = system: KM12
SR = system: SR
HL-60 = system: HL-60

Measured: GI50

COc1cc(-c2cc(=O)c3cc(C)c(C)c(C(=O)O)c3o2)cc(OC)c1OC
inactive: IGROV-1 > 100 µM | NCI-H460 > 100 µM | OVCAR-5 > 100 µM | U-251 > 100 µM | SNB-75 2.32 µM | SNB-19 > 100 µM | K562 > 100 µM | LOX IMVI > 100 µM | SK-MEL-28 > 100 µM | MOLT-4 > 100 µM | A549 > 100 µM | OVCAR-3 > 100 µM | KM12 > 100 µM

S=c1sc2c(Cl)ncnc2n1-c1ccccc1
inactive: IGROV-1 15 µM | SR 3.27 µM | NCI-H460 15.7 µM | OVCAR-5 22.9 µM | U-251 16 µM | SNB-75 14 µM | SNB-19 18.2 µM | LOX IMVI 4.28 µM | SK-MEL-28 11.2 µM | MOLT-4 18.2 µM | A549 28.8 µM | OVCAR-3 15.4 µM | KM12 17.2 µM

C1=Cc2nc1c(-c1ccncc1)c1ccc([n-]1)c(-c1ccncc1)c1nc(c(-c3ccncc3)c3ccc([n-]3)c2-c2ccncc2)C=C1.[Zn+2]
inactive: IGROV-1 > 100 µM | NCI-H460 > 100 µM | OVCAR-5 > 100 µM | U-251 > 100 µM | HL-60 > 100 µM | SNB-75 > 100 µM | SNB-19 > 100 µM | K562 > 100 µM | LOX IMVI > 100 µM | SK-MEL-28 > 100 µM | MOLT-4 > 100 µM | A549 > 100 µM | OVCAR-3 > 100 µM | KM12 > 100 µM

C[C@]12CCC3[C@@H](CC[C@@H]4c5nonc5CC[C@]34C)C1CC[C@@H]2O (some centres not stated)
inactive: IGROV-1 41.8 µM | NCI-H460 25.9 µM | OVCAR-5 > 100 µM | U-251 19.9 µM | HL-60 18.3 µM | SNB-75 27.2 µM | SNB-19 41.6 µM | K562 34.3 µM | LOX IMVI 19.6 µM | SK-MEL-28 21.1 µM | MOLT-4 23.3 µM | A549 25.5 µM | OVCAR-3 21.1 µM | KM12 37.8 µM

CC(=O)O[C@H]1CCC2[C@@H]3CCC4=C(O)c5nocc5C[C@]4(C)C3CC[C@@]21C (some centres not stated)
inactive: IGROV-1 > 100 µM | NCI-H460 > 100 µM | OVCAR-5 > 100 µM | U-251 > 100 µM | SNB-75 > 100 µM | SNB-19 > 100 µM | K562 > 100 µM | LOX IMVI > 100 µM | SK-MEL-28 > 100 µM | MOLT-4 > 100 µM | A549 > 100 µM | OVCAR-3 > 100 µM | KM12 > 100 µM
